{"source": "patent US20220323454A1", "about": "“PHENOTHIAZINES AND THEIR DERIVATIVES FOR USE AS A MEDICAMENT” (Guangzhou Virotech Pharmaceutical Co., Ltd., priority 2019, published 2022)", "key": {"[1]": {"tested_on": "B16-OVA cells", "assay": "CTL killing of IFN-γ-treated B16-OVA melanoma cells (microscope)", "type": "cell-based, mouse", "experimental": "(3) Melanoma cells B16-OVA (B16 cells expressing OVA gene) were treated with 10 μg/mL IFN-γ for 24 hours, and then mixed with CTL cells at a ratio of 1:5 and co-cultured for 4 hours. Cells were treated with 1 μM MTC. B16-OVA cells treated with DMSO or MTC only (without IFN-γ treatment) were used as control. The apoptosis of B16-OVA was observed by microscope, and then the killing ability of CTL cells to target cells was assessed.\n(§1) (4) The B16-OVA group received no treatment, and the medium was replaced with water in the Water group. The other groups were treated with 10 μg/mL IFNγ. After 24 hours, except for the B16-OVA group, each group was co-cultured with CTL cells at a ratio of 1:5 for 4 hours, and treated with MTC […], LMT (1 μM) or anti-PD1 (PD-1 antibody, 10 μg/mL, Nivolumab, BMS). The death of B16-OVA in each group was observed by microscope, and then the killing ability of CTL cells to target cells was assessed. […] The IFN-γ+MTC group and the IFN-γ+LMT group were treated with 10 μg/mL IFN-γ for 24 hours. The cells were then mixed with CTL cells at a ratio of 1:5, co-cultured for 4 hours and treated with MTC (1 μM) or LMT (1 μM). The MTC and LMT groups were treated with MTC (10 μM) or LMT (10 μM) only. The killing ability against target cells was observed."}, "[2]": {"tested_on": "B16-WT cells", "assay": "Killing of B16-WT melanoma cells, with or without CTL cells", "type": "cell-based, mouse", "settings": "FIG. 4E", "experimental": "as §1"}, "[3]": {"tested_on": "EGFR-L858R mutant orthotopic tumors", "assay": "EGFR-L858R transgenic mouse orthotopic lung cancer model (CT)", "type": "in vivo", "settings": "FIG. 6B", "excerpt": "The advantages of xenograft models are that the antigenic epitopes recognized by T cells are very clear, and the system is pure for elucidation. The disadvantage is that this model cannot simulate the complex carcinogenesis, tumorigenesis, and interactions of tumor and stromal cells of the primary cancer. Therefore, murine xenograft models are less predictive of drug effects in human patients. Therefore, in this example, the effect of the MTC of the present invention in treating tumors was further investigated by using a transgenic lung cancer mouse model. […] One to two months later, lung cancer in mice could be detected and recorded by computed tomography (CT). […]\n(2) The size and severity of the tumors was recorded by computed tomography (CT).\n(3) The tumor-bearing mice were randomly divided into groups and given placebo (HKI solution) and MTC (40 mg/kg/day in HKI solution). After 2 weeks of treatment, tumor sizes were recorded by CT again.\nMice were intraperitoneally injected with CD8 antibody […] one week in advance to deplete CD8+ cells in the tumor-bearing mice. The mice were then co-treated with MTC and CD8 antibody for 2 weeks, and the tumor size was recorded by CT."}, "[4]": {"target": "T1, PD-1 recruitment of SHP2 (Homo sapiens, UniProt Q06124+Q15116)", "T1 construct": "expressed in transfected cells", "T1 sequence (Q15116 25-288)": "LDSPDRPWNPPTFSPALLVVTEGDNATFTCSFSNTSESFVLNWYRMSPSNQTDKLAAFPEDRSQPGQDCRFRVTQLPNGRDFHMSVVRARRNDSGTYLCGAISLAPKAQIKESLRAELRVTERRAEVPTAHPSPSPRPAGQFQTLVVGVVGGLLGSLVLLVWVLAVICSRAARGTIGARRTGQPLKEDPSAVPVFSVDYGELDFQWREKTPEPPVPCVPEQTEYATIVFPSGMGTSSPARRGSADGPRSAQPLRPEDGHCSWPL", "T1 sequence (Q06124 whole entry)": "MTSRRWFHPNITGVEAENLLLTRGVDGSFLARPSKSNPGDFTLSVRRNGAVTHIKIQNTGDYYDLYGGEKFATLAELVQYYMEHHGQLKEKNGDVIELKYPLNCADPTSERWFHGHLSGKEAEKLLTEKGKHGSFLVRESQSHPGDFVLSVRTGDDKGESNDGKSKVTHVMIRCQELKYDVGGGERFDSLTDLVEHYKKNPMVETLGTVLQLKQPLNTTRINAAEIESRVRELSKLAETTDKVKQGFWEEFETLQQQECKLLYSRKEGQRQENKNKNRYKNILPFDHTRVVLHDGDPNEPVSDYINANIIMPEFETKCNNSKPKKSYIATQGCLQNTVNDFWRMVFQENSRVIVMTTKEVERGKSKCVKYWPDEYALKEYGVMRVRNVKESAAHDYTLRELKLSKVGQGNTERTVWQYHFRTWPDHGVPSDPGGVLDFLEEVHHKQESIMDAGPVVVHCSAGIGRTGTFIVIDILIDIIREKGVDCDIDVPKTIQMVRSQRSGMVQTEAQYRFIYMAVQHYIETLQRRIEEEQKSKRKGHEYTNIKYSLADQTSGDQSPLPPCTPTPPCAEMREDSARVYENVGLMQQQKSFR", "assay": "Split-luciferase PD-1-Cluc / Nluc-SHP2 interaction in 293T cells", "type": "cell-based", "settings": "293T stable cell line, different concentrations of MTC, 6 hours; FIG. 7A", "excerpt": "This example preliminarily explored the mechanism by which MTC inhibits PD-1 signaling, and assessed the ability of MTC to affect PD-1 recruitment of SHP2. The binding of PD-1 to ligands can recruit SHP2 protein to the surrounding T cell receptors, thereby inhibiting the activation of T cell receptor proximal kinases, reducing Lck-mediated phosphorylation of ZAP-70 protein and the initiation of downstream signaling pathways. Luciferase can be split into two fragments, N-terminal and C-terminal. When the two fragments are fused with other proteins, the activity of luciferase can be detected if the N-terminal and C-terminal luciferase fragments are close due to the interaction of their fusion proteins. Therefore, the strength of the interaction of the fused proteins can indirectly detected by measuring the activity of luciferase.\n(1) Fusion genes PD-1-Cluc and Nluc-SHP2 were transfected into 293T cells with liposomes to construct a stable cell line. The cells were added with different concentrations of MTC and cultured for 6 hours to observe the effect of MTC on the reading of luciferase."}, "[5]": {"target": "T1, PD-1 recruitment of SHP2", "assay": "Confocal localization of PD-1-GFP and SHP2-mCherry in 293T cells", "type": "cell-based", "settings": "293T stable cell line, MTC 6 hours, then 1 μM PVD 5 minutes", "experimental": "(2) Fusion genes PD-1-GFP and SHP2-mCherry were transfected into 293T cells with liposomes to construct a stable cell line. The cells were added with MTC at different concentrations, cultured for 6 hours, and then treated with 1 μM PVD (a dephosphorylase inhibitor) for 5 minutes. Cells were fixed with 4% paraformaldehyde and the effect of MTC on the localization of GFP and mCherry, namely PD-1 and SHP2, was observed under Confocal."}, "[6]": {"target": "T1, PD-1 recruitment of SHP2", "assay": "Co-IP of PD-1-Flag and SHP2 in 293T cells", "type": "cell-based", "settings": "293T co-transfected with PD-1-Flag and SHP2 plasmids, MTC at different concentrations; FIG. 7C", "experimental": "(3) The PD-1-Flag plasmid and SHP2 plasmid were co-transfected in 293T cells, and the cells were then treated with MTC at different concentrations. The ability of PD-1 to recruit SHP2 was detected by Co-IP."}}, "data": [{"smiles": "CN(C)c1ccc2nc3ccc(N(C)C)cc3[s+]c2c1", "note": "[MTC, 3,7-bis(dimethylamino)-phenothiazine-5-ium chloride]", "values": [{"measurement": "killing effects of CTL cells to B16-OVA cells", "setting": "[1]; B16-OVA treated with 10 μg/mL IFNγ 24 hours, B16-OVA : CTL 1:5, 4 hours, MTC (1 µM), LMT (1 μM), FIGS. 4C and 4D", "value": "significantly enhanced"}, {"measurement": "combined killing effect with CTL cells on B16-OVA compared with the anti-PD-1 group", "setting": "[1]; MTC (1 µM) or LMT (1 μM) vs anti-PD1 10 μg/mL, FIG. 4D", "value": "significantly stronger than that of the anti-PD-1 group"}, {"measurement": "killing effect on B16-WT cells, combination with CTL cells", "setting": "[2]; IFN-γ 10 μg/mL 24 hours, B16-WT : CTL 1:5, 4 hours, MTC (1 μM) or LMT (1 μM)", "value": "no killing effect"}, {"measurement": "killing effect on B16-WT cells, compound only", "setting": "[2]; MTC (10 μM) or LMT (10 μM) only", "value": "no killing effect"}, {"measurement": "tumor growth in the case of CD8+ T cell depletion", "setting": "[3]; CD8 antibody one week in advance, then MTC and CD8 antibody for 2 weeks", "value": "not inhibited"}, {"measurement": "tumors by CT imaging", "setting": "[3]; MTC 40 mg/kg/day in HKI solution, 14 days", "value": "basically cleared"}, {"measurement": "readings of luciferase (PD-1-Cluc / Nluc-SHP2 interaction)", "setting": "[4]", "value": "reduce the readings of luciferase"}, {"measurement": "localization of SHP2-mCherry relative to PD-1-GFP", "setting": "[5]", "value": "dissociation of mCherry from the membrane"}, {"measurement": "binding of PD-1 to SHP2 (Co-IP)", "setting": "[6]", "value": "prevented the binding of PD-1 to SHP2"}]}]}
